What was measured:
[1] = 73 healthy volunteers, higher doses; cited from earlier work
[2] = test system: primary human T-cells harbouring the WT TpoR; test: Enrichment of TpoR+ cells (anti-CD110 flow cytometry), WT TpoR T-cells diluted to 20% transduction; type: cell-based; conditions: for TpoR positive cells after enrichment: start 20% transduced, up to nine days
Procedure: (§1) FIG. 6—Enrichment kinetics of modular T-cell growth signal receptor engineered T-cells to varying concentrations of IL-2, Eltrombopag (Elt) or thrombopoietin (Tpo). Transduced primary human T-cells were diluted with non-transduced cells to a 20% transduction level. Cells were incubated with the indicated concentrations of each drug and the enrichment of each population established at the indicated time points by staining cells with anti-CD110-PE antibodies. Following expansion cells were washed excessively to remove any exogenous IL2 and plated into 96-well U-bottom plates. Cells were supplemented with IL2 (Proleukin), recombinant human Tpo (Miltenyi Biotec) or Eltrombopag (Stratech Scientific, Suffolk, UK). At various time points thereafter cells were either stained with a 1:400 dilution of eFlor-450 fixable viability dye (eBioscience, UK) and counted directly from the wells using a MACSQuant Cytometer, or were stained with viability dye plus phycoerythrin conjugated anti-CD110 antibodies (Miltenyi Biotec, UK) and analysed using a MACSQuant cytomter. Cell viability and/or transduction level was then analysed using MACSQuantify software (Miltenyi Biotec, UK). Additional cells were diluted with non-transduced cells to achieve a population with 20% transduction efficiency. […] After three, six and nine days the cells were stained with anti-CD110 (TpoR) antibodies and analysed by flow cytometry.

[3] = test system: WT TpoR transduced primary human T-cells; type: cell-based; conditions: for response in relative increase of cell number as concentration increases: varying concentrations, three and five days
Procedure: Transduced primary human T-cells were incubated with the indicated concentrations of each drug and cells counted after three and five days
Following expansion cells were washed excessively to remove any exogenous IL2 and plated into 96-well U-bottom plates. Cells were supplemented with IL2 (Proleukin), recombinant human Tpo (Miltenyi Biotec) or Eltrombopag (Stratech Scientific, Suffolk, UK). At various time points thereafter cells were either stained with a 1:400 dilution of eFlor-450 fixable viability dye (eBioscience, UK) and counted directly from the wells using a MACSQuant Cytometer, or were stained with viability dye plus phycoerythrin conjugated anti-CD110 antibodies (Miltenyi Biotec, UK) and analysed using a MACSQuant cytomter. Cell viability and/or transduction level was then analysed using MACSQuantify software (Miltenyi Biotec, UK).
After three and five days the cells were stained with EFlor-450 Live/dead fixable viability dye and the cells in each well counted by flow cytometry.

[4] = test system: primary human T-cells harbouring the mt TpoR; test: Enrichment of TpoR+ cells (anti-CD110 flow cytometry), mt (truncated) TpoR T-cells diluted to 20% transduction; type: cell-based; conditions: for TpoR positive cells after enrichment: start 20% transduced, up to nine days
Procedure: as §1

[5] = test system: melanoma TIL transduced with WT TpoR; test: Enrichment of TpoR+ cells in WT TpoR transduced melanoma tumour infiltrating lymphocytes; type: cell-based, human; conditions: for TpoR+ cells after enrichment: from 65% TpoR+
Procedure: FIG. 12—Analysis of WT TpoR activity in Melanoma Tumour Infiltrating Lymphocytes. Tumour infiltrating lymphocytes (TIL) established from a cutaneous melanoma lesion were lentivirally transduced with the WT TpoR rGFR. The TIL were incubated in the presence of 200 IU/ml IL2 or the indicated concentrations of Tpo or Eltrombopag. At days 2 and 5 cells were removed, stained with PE conjugated anti-CD110 antibodies and analysed using a MACSQuant analyser.
Next we aimed to determine whether the WT TpoR was functionally active in Tumour Infiltrating Lymphocytes (TIL). It was possible that the high doses of IL2 used to generate TIL cultures could make them more dependent on IL2 for subsequent growth. To this end we added lentiviral supernatants to melanoma TIL cultures. Cells were transduced to 65% (FIG. 12). The TILs were cultured in the presence of 200 IU/ml IL-2, or Eltrombopag or Tpo. Cells were analysed for TpoR expression at days 2 and 5. […] In contrast there was no enrichment of TpoR+ cells in the presence of IL2 supporting the notion that this is driven by signals through the TpoR.

TpoR F104S = target: T1, TpoR F104S (Homo sapiens, UniProt P40238, F104S); conditions: Fox et al 2010; cited from earlier work
T1 sequence (P40238 26-635 F104S): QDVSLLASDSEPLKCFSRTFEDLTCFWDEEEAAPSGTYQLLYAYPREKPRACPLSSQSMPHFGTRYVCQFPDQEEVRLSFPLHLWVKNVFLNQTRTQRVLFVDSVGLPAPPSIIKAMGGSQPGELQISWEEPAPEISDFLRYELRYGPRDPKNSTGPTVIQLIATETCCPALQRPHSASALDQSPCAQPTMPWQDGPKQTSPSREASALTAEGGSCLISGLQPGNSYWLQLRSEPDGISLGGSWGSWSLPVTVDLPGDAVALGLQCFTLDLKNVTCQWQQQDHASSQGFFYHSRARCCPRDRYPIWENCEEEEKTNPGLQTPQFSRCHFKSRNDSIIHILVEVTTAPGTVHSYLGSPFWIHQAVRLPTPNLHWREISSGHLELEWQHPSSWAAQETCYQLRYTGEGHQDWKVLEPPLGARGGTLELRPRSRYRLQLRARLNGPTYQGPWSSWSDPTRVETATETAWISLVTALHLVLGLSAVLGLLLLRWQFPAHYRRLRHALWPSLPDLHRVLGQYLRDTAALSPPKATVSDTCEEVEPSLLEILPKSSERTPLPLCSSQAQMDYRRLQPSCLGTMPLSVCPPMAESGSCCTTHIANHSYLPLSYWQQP

[6] = test system: Ba/F3 cells transduced with WT TpoR; test: Enrichment of transduced Ba/F3 cells, WT TpoR; type: cell-based, murine; conditions: 0.5 μM Eltrombopag or 1.0 μM Tpo; days 3, 5 and 7
Procedure: (§2) FIG. 10—Analysis of rGFR variants in Ba/F3 cells. The IL3 dependent cell line Ba/F3 was transduced with the indicated rGFR variants and incubated in the presence of 1 μM Tpo, 0.5 μM Eltrombopag or 0.5 ng/ml IL3. Cells were taken at days 3, 5 and 7 stained with PE conjugated anti-CD110 antibodies and analysed using a MACSQuant analyser.
(§3) To determine whether the new variants generated were functionally active we transduced the IL3 dependent cell line Ba/F3 and incubated the cells with either IL-3, 0.5 μM Eltrombopag or 1.0 μM Tpo and measured the proportion of cells expressing the indicated TpoR at days 3, 5 and 7.

[7] = test system: Ba/F3 cells transduced with TpoR-PrIR variant; test: Enrichment of transduced Ba/F3 cells, TpoR-PrIR; type: cell-based, murine; conditions: 0.5 μM Eltrombopag or 1.0 μM Tpo; days 3, 5 and 7; compared with the other variants
Procedure: as §2, §3

[8] = test system: Ba/F3 cells transduced with F104S TpoR variant; test: Enrichment of transduced Ba/F3 cells, F104S TpoR; type: cell-based, murine; conditions: 0.5 μM Eltrombopag or 1.0 μM Tpo; days 3, 5 and 7
Procedure: as §2, §3

[9] = test system: Ba/F3 cells transduced with TpoR-HGHR variant; test: Enrichment of transduced Ba/F3 cells, TpoR-HGHR; type: cell-based, murine; conditions: 0.5 μM Eltrombopag or 1.0 μM Tpo; days 3, 5 and 7
Procedure: as §2, §3

Molecule: CC1=NN(c2ccc(C)c(C)c2)C(=O)/C1=N\Nc1cccc(-c2cccc(C(=O)O)c2)c1O [Eltrombopag]
- tolerability [1]: without tolerability problems
- TpoR positive cells after enrichment ([2]; 0.5 μM Eltrombopag): 83.5%
- concentration at which responses (relative increase of cell number) are maximal ([3]; 94% transduced, 5×10^4 cells/well, counted after three and five days): around 0.1 μM
- toxicity to the T-cells ([3]; concentrations above around 0.1 μM): becoming toxic
- TpoR positive cells after enrichment ([4]; 0.5 μM Eltrombopag): 66.6%
- TpoR+ cells after enrichment ([5]; high (1.0 μM) Eltrombopag): 90%
- TpoR+ cells after enrichment ([5]; low (0.1 μM) Eltrombopag): 89%

Molecule: IL-2: IL2 (Proleukin), cytokine normally required for optimal T-cell growth
- enrichment of TpoR positive cells over time ([2]; 100 IU/ml IL-2 alone): did not become enriched over time
- response in relative increase of cell number as concentration increases [3]: dose dependent responses
- enrichment of TpoR positive cells over time ([4]; 100 IU/ml IL-2 alone): did not become enriched over time
- enrichment of TpoR+ cells ([5]; 200 IU/ml IL-2): no enrichment

B1: Tpo: recombinant human Tpo (Miltenyi Biotec), native ligand of the thrombopoietin receptor (protein)
chain: SPAPPACDLRVLSKLLRDSHVLHSRLSQCPEVHPLPTPVLLPAVDFSLGEWKTQMEETKAQDILGAVTLLLEGVMAARGQLGPTCLSSLLGQLSGQVRLLLGALQSLLGTQLPPQGRTTAHKDPNAIFLSFQHLLRGKVRFLMLVGGSTLCVRRAPPTTAVPSRTSLVLTLNEL
- effect of the F104S extracellular point mutation on responsiveness to the ligand (TpoR F104S): prevent responsiveness
- enrichment of transduced cells [6]: able to support the enrichment of transduced cells
- TpoR positive cells after enrichment ([2]; 10.0 μM Tpo): 87.5%
- functional activity (enrichment of transduced cells) [7]: less robust responses
- maximal response compared with Eltrombopag or IL-2 ([3]; possibly optimal concentrations not used): did not see maximal responses to Tpo comparable to those seen with Eltrombopag or IL-2
- response in relative increase of cell number as concentration increases [3]: dose dependent responses
- enrichment of transduced cells [8]: much reduced activity
- TpoR positive cells after enrichment ([4]; 10.0 μM Tpo): 77.9%
- functional activity (enrichment of transduced cells) [9]: functional activity
- enrichment of TpoR+ T-cells ([5]; high (1 μM) Tpo): able to induce enrichment
